Measurements as given in US8921270B2, “Method for pre-emergent weed control using triazine-based herbicide” (Amvac Chemical Corporation, priority 2011, dated 2014).
Read-outs that look alike come from different tables or passages of the source.

How the values were obtained:
Giant Ragweed [1] = experiment: Weed control field trial, Richland, Iowa, fine textured soil (Example 6); format: in vivo; conditions: PRE; 4 weeks observation after application
Method: (§1) Several scientific and replicated field research trials were conducted in multiple locations to evaluate weed control and crop tolerance of herbicide compositions containing about 80% by weight of ametryn active ingredient in the form of a water dispersible granule (WDG). The herbicide compositions were applied to the soil surface with or without weeds present at specific intervals i) before planting (preplant), ii) prior to planting and incorporated into the soil (preplant incorporated), and iii) after planting of the corn, but prior to emergence (preemergence).
(§2) Small plot research trials were conducted using a statistical design known as Randomized Complete Block Design (RCBD), which assumes that a population of experimental units can be divided into a number of relatively homogeneous subpopulations or blocks. The treatments are then randomly assigned to experimental units such that each treatment occurs equally often (usually once) in each block—i.e., each block contains all treatments. Blocks usually represent levels of naturally occurring differences or sources of variation that are unrelated to the treatments. In the analysis, the variation among blocks can be partitioned out of the experimental error (MSE), thereby reducing this quantity and increasing the power of the test. See, Clewer, A. G., and D. H. Scarisbrick. 2001. Practical statistics and experimental design for plant and crop science. John Wiley & Sons Ltd., New York. crop science. Treatment size was typically 4 rows of corn on 30-inch row spacing×30 feet long replicated 3 to 4 times. Preplant, preplant incorporated (PPI), or preemergence (PRE) treatments were uniformly applied with a hand-held backpack sprayer pressurized with compressed air or carbon dioxide (CO2) as the propellant to simulate commercial scale application. Treatments were applied using flat fan nozzle or spray nozzles at from 30 to 35 pounds per square inch (psi) delivering from 15 to 20 gallons of finished spray solution per acre.
(§3) Efficacy on weeds and crop tolerance evaluations were conducted at specified intervals for each trial. Ametryn herbicide (80% WDG) was applied to the soil at the times relative to planting as indicated at rates of 0.8, 1.2, 1.6, and 2.4 pounds of active ingredient per acre (lb ai/a) at various days preplant up to right before planting (0 day preplant), or immediately following planting (PRE), but before crop emergence. Crop tolerance was evaluated at intervals of 7 to 14, 21 to 28, and 42 to 56 days after corn emergence in these trials. Crop injury, if observed, was reported on a 0 to 100% visual rating scale and the type of injury (e.g., stunting) was noted. The efficacy of ametryn at a rate of 0.8, 1.2, 1.6 and 2.4 lbs ai/a applied 7 to 14 days preplant was evaluated on grass and broadleaf weeds at intervals of 7 to 14, 21 to 28, and 42 to 56 days after corn emergence. Efficacy trials were also conducted in no tillage and reduced tillage cropping systems, allowing for evaluations of existing weeds at application (i.e., burndown) and residual control of weeds which germinate following application. In an additional trial, efficacy of ametryn at rates of 1.2, 1.6 and 2.4 lb ai/a applied PRE was evaluated on grass and broadleaf weeds at the same intervals as the earlier trials. Efficacy in the later trials was conducted in both conventional and reduced tillage systems, which allowed for evaluations of residual weed control following application. A local commercial corn hybrid was planted in each trial location.
(§4) A weed control field trial was conducted in Richland, Iowa on a fine textured soil (e.g., silty clay loam). […]

Velvetleaf [2] = experiment: as above; format: in vivo; conditions: PRE; 4 weeks observation after application
Method: as §1, §2, §3, §4

Giant Foxtail [3] = experiment: as above; format: in vivo; conditions: PRE; 4 weeks observation after application
Method: as §1, §2, §3, §4

Morningglory [4] = experiment: as above; format: in vivo; conditions: PRE; 4 weeks observation after application
Method: as §1, §2, §3, §4

Waterhemp [5] = experiment: as above; format: in vivo; conditions: PRE; 4 weeks observation after application
Method: as §1, §2, §3, §4

Cocklebur [6] = experiment: as above; format: in vivo; conditions: PRE; 4 weeks observation after application
Method: as §1, §2, §3, §4

Lambsquarters [7] = experiment: Weed control field trial, Wyoming, Ill., medium textured soil (Example 7); format: in vivo; conditions: PRE; 8 weeks observation after application
Method: as §1, §2
(§5) Efficacy on weeds and crop tolerance evaluations were conducted at specified intervals for each trial. […] Crop tolerance was evaluated at intervals of 7 to 14, 21 to 28, and 42 to 56 days after corn emergence in these trials. […] The efficacy of ametryn at a rate of 0.8, 1.2, 1.6 and 2.4 lbs ai/a applied 7 to 14 days preplant was evaluated on grass and broadleaf weeds at intervals of 7 to 14, 21 to 28, and 42 to 56 days after corn emergence. […] In an additional trial, efficacy of ametryn at rates of 1.2, 1.6 and 2.4 lb ai/a applied PRE was evaluated on grass and broadleaf weeds at the same intervals as the earlier trials. […]

Velvetleaf [8] = experiment: as above; format: in vivo; conditions: PRE; 8 weeks observation after application
Method: as §1, §2, §5

Giant Foxtail [9] = experiment: as above; format: in vivo; conditions: PRE; 8 weeks observation after application
Method: as §1, §2, §5

Redroot Pigweed [10] = experiment: as above; format: in vivo; conditions: PRE; 8 weeks observation after application
Method: as §1, §2, §5

Lambsquaters = experiment: Weed control field trial, Laurel, Md., light textured soil (Example 4); format: in vivo; conditions: 0.8, 1.6, 2.4 lb ai/a; 14 days preplant, 2 days preplant, PRE; 21 and 35 days after corn emergence
Method: as §1
(§6) Small plot research trials were conducted using a statistical design known as Randomized Complete Block Design (RCBD), which assumes that a population of experimental units can be divided into a number of relatively homogeneous subpopulations or blocks. […] In the analysis, the variation among blocks can be partitioned out of the experimental error (MSE), thereby reducing this quantity and increasing the power of the test. […]
(§7) Efficacy on weeds and crop tolerance evaluations were conducted at specified intervals for each trial. […] Crop tolerance was evaluated at intervals of 7 to 14, 21 to 28, and 42 to 56 days after corn emergence in these trials. […] In an additional trial, efficacy of ametryn at rates of 1.2, 1.6 and 2.4 lb ai/a applied PRE was evaluated on grass and broadleaf weeds at the same intervals as the earlier trials. […]

Goosegrass = experiment: as above; format: in vivo; conditions: 0.8, 1.6, 2.4 lb ai/a; 14 days preplant, 2 days preplant, PRE; 21 and 35 days after corn emergence
Method: as §1, §6, §7

Lambsquarters [11] = experiment: Weed control field trial, Fishers, Ind., fine textured soil (Example 8); format: in vivo; conditions: PRE, rate of 1.6 lb ai/a
Method: as §1, §2, §5

Velvetleaf [12] = experiment: as above; format: in vivo; conditions: PRE, rate of 1.6 lb ai/a
Method: as §1, §2, §5

Giant Foxtail [13] = experiment: as above; format: in vivo; conditions: PRE, rate of 1.6 lb ai/a
Method: as §1, §2, §5

Redroot Pigweed [14] = experiment: as above; format: in vivo; conditions: PRE, rate of 1.6 lb ai/a
Method: as §1, §2, §5

Giant Ragweed [15] = experiment: Weed control field trial, Laurel, Md., light textured soil (Example 5); format: in vivo; conditions: 1.2, 1.6, 2.4 lb ai/a PRE; 27 and 56 days after corn emergence
Method: as §1, §2, §3
(§8) A weed control field trial was conducted in Laurel, Md. on a light textured soil. Ametryn herbicide (80% WDG) was applied preemergence to bare soil in the field to Giant Foxtail, Velvetleaf, Waterhemp, Giant Ragweed, Morningglory, and Cocklebur at rates of 1.2, 1.6 and 2.4 pounds of active ingredient per acre (lb ai/a) immediately following planting (PRE) and prior to corn emergence. The application volume was between 15 and 25 gallons per acre. […]

Velvetleaf [16] = experiment: as above; format: in vivo; conditions: 1.2, 1.6, 2.4 lb ai/a PRE; 27 and 56 days after corn emergence
Method: as §1, §2, §3, §8

Giant Foxtail [17] = experiment: as above; format: in vivo; conditions: 1.2, 1.6, 2.4 lb ai/a PRE; 27 and 56 days after corn emergence
Method: as §1, §2, §3, §8

Morningglory [18] = experiment: as above; format: in vivo; conditions: 1.2, 1.6, 2.4 lb ai/a PRE; 27 and 56 days after corn emergence
Method: as §1, §2, §3, §8

Waterhemp [19] = experiment: as above; format: in vivo; conditions: 1.2, 1.6, 2.4 lb ai/a PRE; 27 and 56 days after corn emergence
Method: as §1, §2, §3, §8

Cocklebur [20] = experiment: as above; format: in vivo; conditions: 1.2, 1.6, 2.4 lb ai/a PRE; 27 and 56 days after corn emergence
Method: as §1, §2, §3, §8

corn [21] = conditions: in vivo
Method: as §1, §6, §7

Velvetleaf [22] = experiment: Weed control field trial, York, Nebr., medium textured soil (Example 11); format: in vivo; conditions: PRE; 4 weeks after application
Method: as §1
(§9) Small plot research trials were conducted using a statistical design known as Randomized Complete Block Design (RCBD), which assumes that a population of experimental units can be divided into a number of relatively homogeneous subpopulations or blocks. The treatments are then randomly assigned to experimental units such that each treatment occurs equally often (usually once) in each block—i.e., each block contains all treatments. Blocks usually represent levels of naturally occurring differences or sources of variation that are unrelated to the treatments. In the analysis, the variation among blocks can be partitioned out of the experimental error (MSE), thereby reducing this quantity and increasing the power of the test. See, Clewer, A. G., and D. H. Scarisbrick. 2001. Practical statistics and experimental design for plant and crop science. John Wiley & Sons Ltd., New York. crop science. […]
as §5

Green Foxtail = experiment: as above; format: in vivo; conditions: PRE; 4 weeks after application
Method: as §1, §9, §5

Waterhemp [23] = experiment: as above; format: in vivo; conditions: PRE; 4 weeks after application
Method: as §1, §9, §5

corn [24] = experiment: Crop tolerance (corn) field trial, Laurel, Md., light soil (Example 2); format: in vivo
Method: as §1, §6, §7

corn [25] = conditions: in vivo; remark: listed apart in the source
Method: Several scientific and replicated field research trials were conducted in multiple locations to evaluate weed control and crop tolerance of herbicide compositions containing about 80% by weight of […] active ingredient in the form of a water dispersible granule (WDG). The herbicide compositions were applied to the soil surface with or without weeds present at specific intervals i) before planting ([…]) prior to planting and incorporated into the soil ([…] incorporated), and iii) after planting of the corn, but prior to emergence (preemergence). Small plot research trials were conducted using a statistical design known as Randomized Complete Block Design (RCBD), which assumes that a population of experimental units can be divided into a number of relatively homogeneous subpopulations or blocks. […] In the analysis, the variation among blocks can be partitioned out of the experimental error (MSE), thereby reducing this quantity and increasing the power of the test. […] Crop tolerance was evaluated at intervals of 7 to 14, 21 to 28, and 42 to 56 days after corn emergence in these trials. […] Crop tolerance was evaluated at intervals of 23, 33, 41 and 56 days after corn emergence in these trials. […] Corn injury (height of corn, number of plants emerged) was measured as visual injury (% injury) at three different times during the season. […]

Lambsquarters [26] = experiment: Weed control field trial, Geneva, Minn., medium textured soil (Example 10); format: in vivo; conditions: PRE; 32 days after application
Method: as §1, §2, §5

Velvetleaf [27] = experiment: as above; format: in vivo; conditions: PRE; 32 days after application
Method: as §1, §2, §5

Giant Foxtail [28] = experiment: as above; format: in vivo; conditions: PRE; 32 days after application
Method: as §1, §2, §5

Waterhemp [29] = experiment: as above; format: in vivo; conditions: PRE; 60 days after application
Method: as §1, §2, §5

corn [30] = conditions: in vivo; remark: listed apart in the source
Method: as §1, §6, §7

corn [31] = experiment: Corn injury in weed control field trial, Laurel, Md., light textured soil (Example 9); format: in vivo
Method: as §1, §2, §5

corn [32] = conditions: in vivo; remark: listed apart in the source
Method: as §1, §6, §7

corn [33] = conditions: in vivo; remark: listed apart in the source
Method: as §1, §6, §7

corn [34] = conditions: in vivo; remark: listed apart in the source
Method: as §1, §6, §7

corn [35] = conditions: in vivo; remark: listed apart in the source
Method: as §1, §6, §7

SMILES: CCNc1nc(NC(C)C)nc(SC)n1 [ametryn, 2-ethylamino-4-isopropylamino-6-methylthio-s-triazine]
- Weed control (Giant Ragweed [1]): moderate to good control
- Weed control (Velvetleaf [2]): moderate to good control
- Weed control (Giant Foxtail [3]): moderate to good control
- Weed control (Morningglory [4]): moderate to good control
- Weed control (Waterhemp [5]): excellent control
- Weed control (Cocklebur [6]): moderate to good control
- Weed control (Lambsquarters [7]): good control
- Weed control (Velvetleaf [8]): good control
- Weed control (Giant Foxtail [9]): good control
- Weed control (Redroot Pigweed [10]): good control
- Percent weed control (Lambsquaters): significant improvement of weed control over the untreated treatment
- Percent weed control (Goosegrass): significant improvement of weed control over the untreated treatment
- Weed control (Lambsquarters [11]): good weed control
- Weed control (Velvetleaf [12]): moderate weed control
- Weed control (Giant Foxtail [13]): moderate weed control
- Weed control (Redroot Pigweed [14]): good weed control
- Percent weed control (Giant Ragweed [15]): significant improvement of weed control over the untreated treatment
- Percent weed control (Velvetleaf [16]): significant improvement of weed control over the untreated treatment
- Percent weed control (Giant Foxtail [17]): significant improvement of weed control over the untreated treatment
- Percent weed control (Morningglory [18]): significant improvement of weed control over the untreated treatment
- Percent weed control (Waterhemp [19]): significant improvement of weed control over the untreated treatment
- Percent weed control (Cocklebur [20]): significant improvement of weed control over the untreated treatment
- Percent corn injury (corn safety) (corn [21]): excellent corn safety
- Weed control (Velvetleaf [22]): moderate control
- Weed control (Green Foxtail): good control
- Weed control (Waterhemp [23]): good control
- Corn yield (corn [24]; even though visual injury was measured at certain times): no reduction in yield
- Corn injury (corn [24]; in vivo): non-significant or no injury
- Corn injury (visual injury) (corn [25]): No injury
- Weed control (Lambsquarters [26]): good control
- Weed control (Velvetleaf [27]): good control
- Weed control (Giant Foxtail [28]): good control
- Weed control (Waterhemp [29]): moderate control
- Percent corn injury (safety to corn) (corn [30]): acceptable safety
- Corn yield (corn [31]; even when minor injury was observed): no negative effect on yield
- Corn injury (corn [31]; in vivo): Minor injury
- Percent corn injury (safety to corn versus commercial standard) (corn [31]; in vivo): as safe to corn as a commercial standard of isoxaflutole with cyprosulfamide
- Safety to corn (corn [31]; in vivo): excellent safety
- Percent corn injury (corn safety) (corn [32]): excellent corn safety
- Percent corn injury (safety to corn) (corn [33]): acceptable safety
- Percent corn injury (safety to corn) (corn [34]): excellent safety
- Corn injury (corn [35]): No injury
